Assay results: ChEMBL document CHEMBL1140529, “Androstene-3,5-dienes as ER-beta selective SERMs” (Bioorg Med Chem Lett, 2007)

Key:
Estrogen receptor beta [1] = biological target: T1, Estrogen receptor beta (Homo sapiens, UniProt Q92731)
Description: Binding affinity at human recombinant ERbeta

Androgen receptor = biological target: T2, Androgen receptor (Homo sapiens, UniProt P10275)
T2 sequence (P10275 whole entry): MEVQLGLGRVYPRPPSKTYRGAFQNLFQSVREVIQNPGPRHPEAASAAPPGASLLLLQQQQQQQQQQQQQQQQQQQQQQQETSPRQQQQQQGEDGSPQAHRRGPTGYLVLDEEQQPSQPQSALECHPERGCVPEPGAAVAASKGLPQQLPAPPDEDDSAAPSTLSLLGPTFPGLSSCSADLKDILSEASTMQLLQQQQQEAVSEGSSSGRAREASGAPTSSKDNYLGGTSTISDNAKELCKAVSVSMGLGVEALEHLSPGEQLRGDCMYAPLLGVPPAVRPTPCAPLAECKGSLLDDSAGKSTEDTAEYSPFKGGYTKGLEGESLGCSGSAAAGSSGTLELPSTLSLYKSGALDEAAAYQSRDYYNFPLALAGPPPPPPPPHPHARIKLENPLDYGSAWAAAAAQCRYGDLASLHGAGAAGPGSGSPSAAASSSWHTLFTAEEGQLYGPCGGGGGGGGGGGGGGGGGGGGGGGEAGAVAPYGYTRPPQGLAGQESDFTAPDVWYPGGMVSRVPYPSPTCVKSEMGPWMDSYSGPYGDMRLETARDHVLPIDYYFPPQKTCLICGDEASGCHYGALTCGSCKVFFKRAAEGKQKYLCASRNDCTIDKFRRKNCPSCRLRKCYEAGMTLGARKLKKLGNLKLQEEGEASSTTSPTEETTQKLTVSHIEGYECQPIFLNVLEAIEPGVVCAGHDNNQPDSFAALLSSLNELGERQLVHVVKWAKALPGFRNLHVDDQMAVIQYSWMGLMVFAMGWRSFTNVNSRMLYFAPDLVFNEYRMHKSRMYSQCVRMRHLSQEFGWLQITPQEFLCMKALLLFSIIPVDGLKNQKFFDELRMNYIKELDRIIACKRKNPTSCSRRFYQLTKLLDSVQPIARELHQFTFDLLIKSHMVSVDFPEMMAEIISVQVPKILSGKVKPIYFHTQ

Estrogen receptor beta [2] = biological target: T1, Estrogen receptor beta; format: functional, cell-based, HEK293
Description: Agonist activity at ERbeta expressed in HEK293 cells by transactivation assay

Estrogen receptor [3] = biological target: T3, Estrogen receptor (Homo sapiens, UniProt P03372); format: functional, cell-based, HEK293
T3 sequence (P03372 whole entry): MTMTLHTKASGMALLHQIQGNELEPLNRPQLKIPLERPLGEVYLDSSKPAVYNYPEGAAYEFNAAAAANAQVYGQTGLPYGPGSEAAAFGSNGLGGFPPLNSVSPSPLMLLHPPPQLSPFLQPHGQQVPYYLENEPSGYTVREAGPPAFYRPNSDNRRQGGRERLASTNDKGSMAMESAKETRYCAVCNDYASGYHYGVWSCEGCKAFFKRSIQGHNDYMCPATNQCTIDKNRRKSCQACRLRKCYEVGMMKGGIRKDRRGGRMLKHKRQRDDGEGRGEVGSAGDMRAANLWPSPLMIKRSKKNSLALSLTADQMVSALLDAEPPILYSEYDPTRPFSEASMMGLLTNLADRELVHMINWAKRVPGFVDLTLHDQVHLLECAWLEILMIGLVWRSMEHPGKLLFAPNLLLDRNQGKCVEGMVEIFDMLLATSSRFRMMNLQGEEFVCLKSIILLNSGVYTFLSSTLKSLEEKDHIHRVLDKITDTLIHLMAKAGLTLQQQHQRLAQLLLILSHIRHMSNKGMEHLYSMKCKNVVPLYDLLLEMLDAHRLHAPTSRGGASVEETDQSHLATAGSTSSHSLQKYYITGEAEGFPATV
Description: Agonist activity at ERalpha expressed in HEK293 cells by transactivation assay

Estrogen receptor [4] = biological target: T3, Estrogen receptor
Description: Binding affinity at human recombinant ERalpha

T1 sequence (Q92731 whole entry): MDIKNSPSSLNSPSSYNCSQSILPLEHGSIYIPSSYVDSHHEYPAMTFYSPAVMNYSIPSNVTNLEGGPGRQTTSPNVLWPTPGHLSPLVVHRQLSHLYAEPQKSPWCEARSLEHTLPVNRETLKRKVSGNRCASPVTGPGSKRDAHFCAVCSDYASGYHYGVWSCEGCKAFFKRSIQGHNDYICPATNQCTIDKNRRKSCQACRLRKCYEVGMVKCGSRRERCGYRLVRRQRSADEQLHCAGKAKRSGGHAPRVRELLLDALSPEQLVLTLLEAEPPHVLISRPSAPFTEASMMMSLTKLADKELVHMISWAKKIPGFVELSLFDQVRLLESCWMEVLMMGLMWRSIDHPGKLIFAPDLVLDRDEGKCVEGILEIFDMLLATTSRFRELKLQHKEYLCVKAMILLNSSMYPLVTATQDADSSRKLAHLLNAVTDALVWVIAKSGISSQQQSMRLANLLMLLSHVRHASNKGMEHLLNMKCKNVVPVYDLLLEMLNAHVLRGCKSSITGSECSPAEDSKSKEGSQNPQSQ

Compound	IC50 (Estrogen receptor beta [1]) [nM]	IC50 (Androgen receptor) [nM]	EC50 (Estrogen receptor beta [2]) [nM]	EC50 (Estrogen receptor [3]) [nM]	IC50 (Estrogen receptor [4]) [µM]
C=C1C=C2CC[C@H]3[C@@H]4CC[C@H](O)[C@@]4(C)CC[C@@H]3[C@@]2(C)CC1	34	40	210		
C=C[C@]12CCC(CC)=CC1=CC[C@H]1[C@@H]3CC[C@H](O)[C@@]3(C)CC[C@@H]12	115	500	565	> 1000	3.11
C=C[C@]12CC[C@H](O)CC1=CC[C@@H]1[C@@H]2CC[C@@]2(C)[C@H]1CC[C@]2(C)O			190	> 1000	1.05
CC1=CC2=CC[C@H]3[C@@H]4CC[C@H](O)[C@@]4(C)CC[C@@H]3[C@@]2(C)CC1	9.4	2250	220		
C=C[C@]12CC[C@@](C)(O)CC1=CC[C@H]1[C@@H]3CC[C@H](O)[C@@]3(C)CC[C@@H]12	2490	2610	> 1000	> 1000	> 10
C=C[C@]12CC[C@](C)(O)CC1=CC[C@H]1[C@@H]3CC[C@H](O)[C@@]3(C)CC[C@@H]12	255	842	240	> 1000	5.3
C=C[C@]12CCC(C)=CC1=CC[C@H]1[C@@H]3CC[C@H](O)[C@@]3(C)CC[C@@H]12	9	560	69	> 1000	1.44
C=C[C@]12CCC(C)=CC1=CC[C@@H]1[C@@H]2CC[C@@]2(C)[C@H]1CC[C@]2(C)O	53	520	480	> 1000	4.38
C=C[C@]12CCC(c3ccccc3)=CC1=CC[C@H]1[C@@H]3CC[C@H](O)[C@@]3(C)CC[C@@H]12	1760	3160	> 1000	> 1000	> 10
C=C[C@]12CCC(=C)C=C1CC[C@H]1[C@@H]3CC[C@H](O)[C@@]3(C)CC[C@@H]12	120	330	230	430	> 10
C=C[C@]12CCC(Cl)=CC1=CC[C@H]1[C@@H]3CC[C@H](O)[C@@]3(C)CC[C@@H]12	64		170	820	5.74
C#CC1(O)CC[C@H]2[C@@H]3CC=C4C=C(C)CC[C@]4(C=C)[C@H]3CC[C@@]21C (single isomer, unassigned)	72	1620	31	490	1.85
C#CC1(O)CC[C@H]2[C@@H]3CC=C4C[C@@H](O)CC[C@]4(C=C)[C@H]3CC[C@@]21C (single isomer, unassigned)				130	0.15
C[C@]12CC[C@H]3[C@@H](CCC4=CC(=O)CC[C@@]43C)[C@@H]1CC[C@@H]2O [TESTOSTERONE]	> 10000				
